Results: patent US20210186972A1, “FORMULATIONS AND METHODS FOR THE PREVENTION AND TREATMENT OF TUMOR METASTASIS AND TUMORIGENESIS” (THE UNITED STATES OF AMERICA, AS REPRESENTED BY THE …, priority 2018, published 2021)
Where two headings read alike, the source gives them in different places.

Columns and labels:
PC3M cells = assay: 24-well Transwell MATRIGEL invasion assay, PC3M; format: cell-based, human; conditions: 0.6 μM, within 24 hours
Description: FIG. 3 is a bar graph showing that metarrestin inhibits MATRIGEL gelatinous protein mixture (BD Biosciences, Franklin Lakes, N.J.) invasion at below micromolar concentrations (0.6 μM) within 24 hours of treatment (* p<0.05 and ** p<0.01 in comparison to DMSO [control]). The invasion (%) is on the y-axis and the metarrestin [microM] is on the x-axis. The cell line PC3M is shown in white bars and the cell line PANC1 (human pancreas) is shown in black bars.
24-well Transwell Permeable MATRIGEL gelatinous protein mixture Invasion assay: The effect of metarrestin on invasion activity of PANC1 and PC3M cells was measured using 24-well Transwell Permeable MATRIGEL gelatinous protein mixture Invasion Chambers with 8 μm pores (Corning, Cat #354480). Membranes were rehydrated with 500 μL of serum-free DMEM (Thermo Fisher, Cat #11965084) both inside the chamber and inside the well and incubated for two hours at 37° C., 5% CO2. Cells were detached, washed, resuspended in serum-free DMEM, counted, and diluted to a final concentration of 1×10^5 cells/mL in six separate 15 mL conical tubes. […] 750 μL of DMEM plus 10% FBS acting as a chemoattractant were placed in the basal wells. Plates were incubated at 37° C., 5% CO2 for 24 hours. […]

PC3M-GFP-PTB cells = assay: PNC prevalence / PNC disassembly in PC3M-GFP-PTB cells; format: cell-based, human
Source text: FIG. 1 is a graph showing the concentration-response curve against PNC prevalence in PC3M (a metastatic prostate cancer cell line)-GFP (green fluorescent protein)-PTB (polypyrimidine tract-binding protein) cells (squares, PC3M, has a PNC prevalence of 75-85% in the absence of treatment) and cytotoxicity as measured by cellular ATP (CELLTITER GLO™) (circles). Representative PTB-GFP images for cells at the indicated concentrations (arrowheads indicate PNCs) (scale bar=5 μm) are shown in the three panels above the graph. The relative signal (%) is along the y-axis and Metarrestin [log M] is along the x-axis.
A metastatic prostate cancer cell line, PC3M, was developed in order to screen small molecules that effectively disassemble PNCs (see Pettaway, et al., “Selection of highly metastatic variants of different human prostatic carcinomas using orthotopic implantation in nude mice,” Clin. Cancer Res., (2): 1627-36 (1996), incorporated herein in its entirety). PC3M has a […] stably express GFP-PTB (polypyrimidine track binding protein) (FIG. 1, top panels), an essential component of PNCs (see Huang, et al., “The perinucleolar compartment and transcription,” Journal of Cell Biology, (143): 35-47 (1998), incorporated herein in its entirety). Compounds able to reduce PNC prevalence by 50% were filtered in secondary assays to eliminate those that induced apoptosis, DNA damage, generic cytotoxicity, or cell-cycle blockage (see Norton, et al., “Automated high-content screening for compounds that disassemble the perinucleolar compartment,” J Biomol Screen, (14): 1045-53 (2009) and Frankowski, et al., “Discovery and Development of Small Molecules That Reduce PNC Prevalence, in Probe Reports from the NIH Molecular Libraries Program, Bethesda (Md.).(2010), incorporated herein in their entirety). The remaining hits were evaluated for invasion inhibition through MATRIGEL gelatinous protein mixture and anchorage-independent growth inhibition using soft agar assays.

C57B/L6 = format: in vivo, mice
[1] = test system: normal human fibroblast GM02153 cell line; assay: UBF distribution (nucleolar capping) in normal fibroblasts; format: cell-based
Description: The nucleolar disruption was reversible within 48 hours upon withdrawal of metarrestin (FIG. 47). Similar disruptions were observed among other treated cell lines, including PANC1 and PC3M cells (FIG. 48), primary tumor, and liver metastatic tissues in the PANC1 xenograft model (FIG. 21, right panels). […] The segregation of the nucleolar compartments observed by EM is believed to correspond to the nucleolar capping structures detected by immunofluorescence of nucleolar proteins (FIGS. 21A-21C, 23, and 50). The coupling of nucleolar segregation with PNC loss was confirmed across several cell lines by immunolabeling with antibodies against the nucleolar Pol I transcription initiation factors, UBF (upstream binding transcription factor) (FIGS. 23 and 50), or Pol I polymerase, RPA194 (FIG. 51). Factors involved in ribosome maturation, such as fibrillarin or NOPP140 (FIGS. 51 and 52) were similarly reorganized. In contrast, UBF distribution was not changed when the normal human fibroblast GM02153 cell line was treated with metarrestin at the same concentration (FIG. 53).

eEF1A = assay: Affinity purification with biotin-conjugated metarrestin and competition; format: binding
Source text: FIG. 35 is a Western blot illustrating that metarrestin effectively outcompeted recombinant eEF1A from binding to anchored biotinylated metarrestin-eEF1A complex. […] Increased eEF1A2 enhances PNCs and metastasis formation.

[2] = female, C57B/L6, mouse, in vivo
[3] = female, C57B/L6, mouse, in vivo, 3 months
[4] = male, C57B/L6, mouse, in vivo, 3 months

SMILES: N=c1c2c(-c3ccccc3)c(-c3ccccc3)n(Cc3ccccc3)c2ncn1[C@H]1CC[C@H](O)CC1 [metarrestin]
- Invasion of PC3M cells (PC3M cells): effectively blocked the invasion
- PNC disassembly and nucleolar distortion (PC3M-GFP-PTB cells; 1 μM): ~100%
- IC90 (PC3M-GFP-PTB cells; Homo sapiens, FIG. 1): 0.75 µM
- IC50 (PC3M-GFP-PTB cells; Homo sapiens, P3CM cells, read-out: PNC disassembling IC50): 0.39 µM
- IC50 (PC3M-GFP-PTB cells; Homo sapiens, PC3M-GFP-PTB cells, read-out: IC50 for disruption of PNCs): 0.39 µM
- IC100 (PC3M-GFP-PTB cells; PC3M cells, 24 hours): 1 µM
- Kidney regeneration, tubule (C57B/L6; C57B/L6 Metarrestin Female F03): 1/4
- Brain hemorrhage (C57B/L6; C57B/L6 Metarrestin Male M03): 1/4
- Epididymis aspermia (C57B/L6; C57B/L6 Metarrestin Male M03): 1/4
- Kidney regeneration, tubule (C57B/L6; C57B/L6 Metarrestin Male M03): 3/4
- Gall Bladder inflammation, acute (C57B/L6; [2]): 3/4
- Ileum segmented filamentous bacteria (C57B/L6; [2]): 3/4
- Adrenal hyperplasia, subcapsular cell (C57B/L6; [3]): 3/4
- Kidney dilatation, tubule (C57B/L6; [3]): 3/4
- Kidney infarct (C57B/L6; [3]): 1/4
- Kidney mineralization (C57B/L6; [3]): 2/4
- Liver inflammation, subacute (C57B/L6; [3]): 4/4
- Lung lymphocytic infiltrate (C57B/L6; [3]): 4/4
- Spleen extramedullary hematopoiesis, erythrocytic, increased erythropoiesis (C57B/L6; [3]): 2/4
- Cecum proliferative typhlitis (C57B/L6; male, C57B/L6, mouse, in vivo): 1/4
- Femur marrow hyperplasia, granulocytic (C57B/L6; male, C57B/L6, mouse, in vivo): 1/4
- Gall Bladder inflammation, acute (C57B/L6; male, C57B/L6, mouse, in vivo): 3/4
- Heart mineralization (C57B/L6; male, C57B/L6, mouse, in vivo): 1/4
- Adrenal lipogenic pigment (C57B/L6; [4]): 4/4
- Ileum segmented filamentous bacteria (C57B/L6; [4]): 3/4
- Kidney dilatation, tubule (C57B/L6; [4]): 2/4
- Kidney mineralization (C57B/L6; [4]): 2/4
- Kidney vacuolation. proximal tubule (C57B/L6; [4]): 1/4
- Liver inflammation, subacute (C57B/L6; [4]): 3/4
- Lung lymphocytic infiltrate (C57B/L6; [4]): 3/4
- Spleen melanin (C57B/L6; [4]): 1/4
- Testis degeneration, seminiferous tubule (C57B/L6; [4]): 1/4
- Thymus cyst (C57B/L6; [4]): 1/4
- Vertebra hyperplasia, granulocytic, marrow (C57B/L6; [4]): 1/4
- UBF distribution ([1]; 1 μM): not changed
- UBF capping ([1]; 5 μM): did not become completely capped
- Binding to eEF1A (competition and proteomic analysis) (eEF1A): metarrestin-binding protein
